{"source": "patent US20060100215A1", "about": "“8A,9-dihydro-4aH-isothiazolo[5,4-b]quinoline-3,4-diones and related compounds as anti-infective agents” (priority 2004, published 2006)", "key": {"[1]": {"tested_on": "E. coli ATCC 25922", "assay": "Minimum inhibitory concentration (MIC) assay, broth microdilution", "assay_type": "cell-based", "settings": "Escherichia coli, ATCC25922, Mueller-Hinton II broth, 37° C., 18 to 24 hours, lowest concentration that inhibited visible growth", "experimental": "(§1) The antimicrobial activity of the compounds of the invention may be evaluated by a number of methods, including the following visual minimum inhibitory concentration (MIC) assay. This assay determines the minimum concentration of compound required to inhibit growth of a bacterial strain. Minimum Inhibitory Concentration (MIC) Assay Whole-cell antibacterial activity is determined by broth microdilution using conditions recommended by the NCCLS (see National Committee for Clinical Laboratory Standards. 2001. Performance standards for antimicrobial susceptibility testing: 11th informational supplement. Vol. 21, no. 1, M100-S11. National Committee for Clinical Laboratory Standards, Wayne, Pa.). Test compounds are dissolved in DMSO and diluted 1:50 in Mueller-Hinton II broth (Becton-Dickinson) to produce a 256 μg/ml stock solution. In a 96-well microtiter plate, the compound solution is serially two-fold diluted in Mueller-Hinton II broth. After the compounds are diluted, a 50 μl aliquot of the test organism (˜1×10^6 cfu/mL) is added to each well of the microtiter plate. The final test concentrations ranges from 0.125-128 μg/mL. Inoculated plates are incubated in ambient air at 37° C. for 18 to 24 hours. The organisms selected for testing included laboratory strains S. aureus ATCC 29213 and E. coli ATCC 25922 (strains purchased from American Type Culture Collection, Manassas, Va.). The minimum inhibitory concentration (MIC) is determined as the lowest concentration of compound that inhibited visible growth of the test organism."}, "[2]": {"tested_on": "S. aureus ATCC 29213", "assay": "Minimum inhibitory concentration (MIC) assay, broth microdilution", "assay_type": "cell-based", "settings": "Staphylococcus aureus, ATCC29213, Mueller-Hinton II broth, 37° C., 18 to 24 hours, lowest concentration that inhibited visible growth", "experimental": "as §1"}}, "data": [{"smiles": "CO/N=C1\\CN(c2c(F)cc3c(=O)c4c(=O)[nH]sc4n(C4CC4)c3c2OC)CC1CN", "note": "(stereo not drawn) [Compound 39, 7-(3-Aminomethyl-4-methoxyimino-pyrrolidin-1-yl)-9-cyclopropyl-6-fluoro-8-methoxy-9H-isothiazolo[5,4-b]quinoline-3,4-dione]", "values": [{"measurement": "MIC", "setting": "[1]", "result": 0.125, "unit": "µg/mL"}, {"measurement": "MIC", "setting": "[2]", "result": "< 0.05", "unit": "µg/mL"}]}, {"smiles": "CO/N=C1\\CN(c2cc3c(cc2F)c(=O)c2c(=O)[nH]sc2n3C2CC2)CC1CO", "note": "(stereo not drawn) [Compound 41, 9-Cyclopropyl-6-fluoro-7-(3-hydroxymethyl-4-methoxyimino-pyrrolidin-1-yl)-9H-isothiazolo[5,4-b]quinoline-3,4-dione]", "values": [{"measurement": "MIC", "setting": "[1]", "result": "< 0.1", "unit": "µg/mL"}, {"measurement": "MIC", "setting": "[2]", "result": "< 0.05", "unit": "µg/mL"}]}, {"smiles": "CO/N=C1\\CN(c2cc3c(cc2F)c(=O)c2c(=O)[nH]sc2n3C2CC2)CC1CN", "note": "(stereo not drawn) [Compound 13]", "values": [{"measurement": "MIC", "setting": "[1]", "result": "< 0.05", "unit": "µg/mL"}, {"measurement": "MIC", "setting": "[2]", "result": 0.05, "unit": "µg/mL"}]}, {"smiles": "CO/N=C1\\CN(c2nc3c(cc2F)c(=O)c2c(=O)[nH]sc2n3C2CC2)CC1CN", "note": "(stereo not drawn) [Compound 42, 7-(3-Aminomethyl-4-methoxyimino-pyrrolidin-1-yl)-9-cyclopropyl-6-fluro-9H-1-thia-2,8,9-triaza-cyclopenta[b]naphtalene-3,4-dione]", "values": [{"measurement": "MIC", "setting": "[1]", "result": "< 0.125", "unit": "µg/mL"}, {"measurement": "MIC", "setting": "[2]", "result": "< 0.1", "unit": "µg/mL"}]}, {"smiles": "CON=C1CCN(c2cc3c(cc2F)c(=O)c2c(=O)[nH]sc2n3C2CC2)CC1", "note": "[Compound 32, 9-Cyclopropyl-6-fluoro-7-(4-methoxyimino-piperidin-1-yl)-9H-isothiazolo[5,4-b]quinoline-3,4-dione]", "values": [{"measurement": "MIC", "setting": "[1]", "result": "< 0.05", "unit": "µg/mL"}, {"measurement": "MIC", "setting": "[2]", "result": "< 0.05", "unit": "µg/mL"}]}, {"smiles": "CO/N=C1\\CN(c2cc3c(cc2F)c(=O)c2c(=O)[nH]sc2n3C2CC2)CC1(C)CN", "note": "(stereo not drawn) [Compound 27]", "values": [{"measurement": "MIC", "setting": "[1]", "result": "< 0.05", "unit": "µg/mL"}, {"measurement": "MIC", "setting": "[2]", "result": "< 0.05", "unit": "µg/mL"}]}]}
